Source: patent US8933270B2, “Use of docasatrienes, resolvins, and their stable analogs in the treatment of airway diseases and asthma” (The Brigham and Women's Hospital, Inc., priority 2002, dated 2015)

Assays:
PMN infiltration = experiment: Zymosan A-induced peritonitis; assay type: in vivo, FVB mice; details: i.v. bolus before zymosan A, lavage at 2 h
Procedure: (§1) FIG. 5 depicts Bioimpact properties of omega-3-derived Resolvins. A) Human glioma cells: Inhibition of TNF-stimulated IL-1β transcripts DBTRG-05MG cells 10^6/ml were stimulated with 50 ng/ml of human recombinant TNFα for 16 hours to induce expression of IL-1β transcripts. Concentration dependence with COX-2 products: 17-HDHA (n), 13-HDHA (l)and di-/tri-HDHA (n). […] (insets) Results are representative of RT-PCR gels of MG cells exposed to 100 nM of 13-HDHA or 17-HDHA and graphed after normalization of the IL-1β transcripts using GAPDH. B) Influence of eicosanoids and docosanoids on fMLP-induced neutrophil migration across micovascular endothelial monolayers Neutrophils (1×10^6 cells/monolayer) were exposed to vehicle containing buffer, or indicated concentrations of aspirin-triggered LXA4 analog (closed diamonds) 5S,12,18R-triHEPE (closed squares), 17R-HDHA (closed circles) or 13-HDHA (closed triangles) for 15 minutes at 37° C. Neutrophils were then layered on HMVEC monolayers and stimulated to transmigrate by a 10^−8 M fMLP gradient for 1 hr at 37° C. Transmigration was assessed by quantitation of the neutrophil marker myeloperoxidase. Results are presented as mean±SEM number of PMN (n=8-12 monolayers per condition). C) Reduction of PMN in murine peritonitis and skin pouch peritonitis: Compounds (100 ng in 120 μL sterile saline) were injected by intravenous bolus injection into the mouse tail vein and followed by 1 ml zymosan A (1 mg/ml) into the peritoneum. Peritoneal lavages were collected (2 h) and cell types were enumerated.
Human PMN transendothelial migration was quantitated by monitoring myeloperoxidase (MPO) an azurophilic granule marker as in (34, 37). Inflammatory exudates were initiated with intrapouch injection of recombinant mouse TNFα (100 ng/pouch; R&D Systems) into dorsal air pouches (10) of 6-8 wk male FVB mice fed laboratory rodent diet 5001 (Lab Diet, Purina Mills) containing less than 0.25% arachidonic acid, 1.49% EPA and 1.86% DHA followed by ASA (500 μg) at 3.5 h and 300 μg DHA/pouch at 4 h post-TNFα injection. At 6 h (within the resolution phase), pouches were lavaged (3 ml saline) and exudate cells were enumerated Inhibition of TNFα stimulated (100 ng/pouch) PMN infiltration with i.v. tail injection of either 17R-HDHA (as prepared with COX-2 vide infra), 5S,12,18R-HEPE, or a 15-epi-LXA4 analog were determined with pouch lavages taken at 4 h. Peritonitis was performed using 6 to 8-week-old FVB male mice (Charles River Laboratories) fed laboratory Rodent Diet 5001 (Purina Mills) that were anesthetized with isoflurane, and compounds to be tested (125 μl) were administered intravenously. Zymosan A in 1 ml (1 mg/ml) was injected ˜1-1.5 min later in the peritoneum. Each test compound (100 ng/incubation, i.e. 17R-HDHA in ethanol) or vehicle alone was suspended in ˜5 μl and mixed in sterile saline 120 μl. Two hours after the intraperitoneal injections, and in accordance with the Harvard Medical Area Standing Committee on Animals protocol #02570, mice were euthanized and peritoneal lavages rapidly collected for enumeration.
Peritonitis was induced in 6 to 8 week old male FVB mice by peritoneal injection of 1 mg Zymosan A. Compounds 4,17S and 10,17S-diHDHA were injected by intravenous bolus injection, 1.5 minutes before Zymosan A treatment. Two hours after induction of peritonitis, rapid peritoneal lavages were collected and cell type enumeration was performed.

[1] = test system: IL-1β transcripts in DBTRG-05MG cells; experiment: Inhibition of TNF-stimulated IL-1β transcripts (RT-PCR); assay type: cell-based, human; details: Homo sapiens, DBTRG-05MG; 50 ng/ml TNFα, 16 h; read-out: IC50, inhibition of TNFα-induced IL-1β transcripts / cytokine expression
Procedure: as §1, with “C) Reduction of PMN in murine peritonitis and skin pouch peritonitis: Compounds (100 ng in 120 μL sterile saline) were injected by intravenous bolus injection into the mouse tail vein and followed by 1 ml zymosan A (1 mg/ml) into the peritoneum. Peritoneal lavages were collected (2 h) and cell types were enumerated.” left out
Human glioma cells DBTRG-05MG cells (ATCC) were cultured as recommended by ATCC. […] Results were analyzed using the NIH Image program (http://rsb.info.nih.gov/nih-image).

leukocyte infiltration = experiment: TNFα-induced dorsal air pouch; assay type: in vivo, FVB mice; details: i.v. or local (intrapouch) administration, lavage at 4 h
leukotrienes [2] = experiment: Leukotriene formation by human PMN; assay type: cell-based; details: in vitro, n=4, not shown
leukotrienes [3] = experiment: Leukotriene formation in murine exudates; assay type: in vivo; details: n=4, not shown
human PMN = experiment: fMLP-induced neutrophil migration across microvascular endothelial monolayers (MPO); assay type: cell-based; details: nM range; 10^-8 M fMLP gradient, 1 hr
Procedure: FIG. 5 depicts Bioimpact properties of omega-3-derived Resolvins. A) Human glioma cells: Inhibition of TNF-stimulated IL-1β transcripts DBTRG-05MG cells 10^6/ml were stimulated with 50 ng/ml of human recombinant TNFα for 16 hours to induce expression of IL-1β transcripts. Concentration dependence with COX-2 products: 17-HDHA (n), 13-HDHA (l)and di-/tri-HDHA (n). […] (insets) Results are representative of RT-PCR gels of MG cells exposed to 100 nM of 13-HDHA or 17-HDHA and graphed after normalization of the IL-1β transcripts using GAPDH. […] Transmigration was assessed by quantitation of the neutrophil marker myeloperoxidase. […]
Human PMN transendothelial migration was quantitated by monitoring myeloperoxidase (MPO) an azurophilic granule marker as in (34, 37). […] At 6 h (within the resolution phase), pouches were lavaged (3 ml saline) and exudate cells were enumerated Inhibition of TNFα stimulated (100 ng/pouch) PMN infiltration with i.v. tail injection of either 17R-HDHA (as prepared with COX-2 vide infra), 5S,12,18R-HEPE, or a 15-epi-LXA4 analog were determined with pouch lavages taken at 4 h. […]

[4] = test system: airway hyper-responsiveness; experiment: OVA model: airway responsiveness to inhaled methacholine (lung resistance); assay type: in vivo, FvB mice; details: PD1 0-200 ng; methacholine 0, 20, 50, 75 mg
Procedure: Because increased airway reactivity is a diagnostic hallmark of asthma, it was also determined if PD 1 regulated airway hyper-responsiveness to inhaled methacholine. After allergen sensitization and aerosol challenge in the presence of PD 1 (0-200 ng), animals were ventilated and exposed (10 sec) to increasing concentrations of inhaled methacholine (0, 20, 50 and 75 mg).
Five to seven week old male FvB mice (Charles River Laboratories, Wilmington, Mass.) were housed in isolation cages under viral antibody-free conditions. Mice were fed a standard diet (Laboratory Rodent Diet 5001, PMI Nutrition International, Richmond, Ind.) that contained no less than 4.5% total fat with 0.26% omega-3 fatty acids and <0.01% C20:4. […] On day 18, 24 h after the last aerosol challenge, airway responsiveness to aerosolized methacholine (0, 20, 50 and 75 mg, 10 sec) was measured, bilateral bronchoalveolar lavage (BAL) (2 aliquots of 1 ml PBS plus 0.6 mM EDTA) was performed or tissues were harvested for histological analysis. Lung resistance was measured using a Flexivent ventilator (SciReq, Montreal, Quebec). Resistance was measured as a function of time for each animal, and peak and average values for each dose of methacholine were recorded. […]

[5] = test system: airway leukocyte accumulation; experiment: OVA sensitization and aerosol challenge: lung histology and BAL leukocytes; assay type: in vivo
Procedure: To determine if PD1 and Resolvin E1 had properties of a counter-regulatory mediator during airway inflammation, physiologically relevant quantities (2, 20 or 200 ng) were administered by intravenous injection to allergen sensitized animals just prior (30 min) to aerosol challenge on 4 consecutive days. […] In conjunction with decreased airway inflammation, levels of the counter-regulatory eicosanoid LXA4 were also […] in the presence of PD1 (data not shown).
(§2) Five to seven week old male FvB mice (Charles River Laboratories, Wilmington, Mass.) were housed in isolation cages under viral antibody-free conditions. Mice were fed a standard diet (Laboratory Rodent Diet 5001, PMI Nutrition International, Richmond, Ind.) that contained no less than 4.5% total fat with 0.26% omega-3 fatty acids and <0.01% C20:4. After Harvard Medical Area IRB approval (Protocol #02570), mice were sensitized with intraperitoneal injections of ovalbumin (OVA) (Grade III; Sigma Chemical Co., St. Louis, Mo.) (10 μg) plus 1 mg aluminum hydroxide (ALUM) (J. T. Baker Chemical Co.; Phillipsburg, N.J.) as adjuvant in 0.2 ml PBS on days 0 and 7. On days 14, 15, 16 and 17, the mice received PD1 (2, 20 or 200 ng), Resolvin E1 (200 ng) (products of biogenic synthesis (Hong, Gronert et al. 2003)), or PBS with 1.6 mM CaCl2 and 1.6 mM MgCl2 (0.1 ml) by intravenous injection 30 min prior to an aerosol challenge containing either PBS or 6% OVA for 25 min/day. On day 18, 24 h after the last aerosol challenge, airway responsiveness to aerosolized methacholine (0, 20, 50 and 75 mg, 10 sec) was measured, bilateral bronchoalveolar lavage (BAL) (2 aliquots of 1 ml PBS plus 0.6 mM EDTA) was performed or tissues were harvested for histological analysis. Lung resistance was measured using a Flexivent ventilator (SciReq, Montreal, Quebec). Resistance was measured as a function of time for each animal, and peak and average values for each dose of methacholine were recorded. No BAL or histological analysis was performed on those animals undergoing airway hyper-responsiveness or lipid extraction studies.
(§3) Tissue morphometry was performed by a member (K. Haley) of the Lung Histopathology Core Laboratory at Brigham and Women's Hospital who was blinded to the experimental conditions prior to histological analyses. Three fields per slide were examined at 200× magnification for vessels, large airways and alveoli with EOS counted at 400× magnification in randomly assigned fields. Vessels were identified by perivascular smooth muscle, and large airways were identified by at least ½ their diameter either cuboidal or columnar epithelia. Measurement of inflammatory mediators was determined in cell-free BAL fluid (2000 g, 10 min) by sensitive and specific ELISAs, in tandem, for interleukin-5 (IL-5), IL-12, IL-13, PGD2 (R&D Systems, Minneapolis, Minn.), cysteinyl LTs, (Cayman Chemical Co, Ann Arbor, Mich.), and LXA4 (Neogen, Lexington, Ky.). Cells in BALF were resuspended in PBS, enumerated by hemocytometer, and concentrated onto microscope slides by cytocentrifuge (STATspin) (265 g). Cells were stained with a Wright-Giemsa stain (Sigma Chemical Co.) to determine leukocyte differentials (after counting ≧200 cells).

[6] = test system: BALF cytokines and lipid mediators; experiment: OVA model: inflammatory mediators in BAL fluid by ELISA; assay type: in vivo, FvB mice
Source text: as §2, §3

[7] = i.v. 30 min before aerosol challenge on 4 days

`CC/C=C\CC(O)/C=C/C=C\C/C=C\C/C=C\C/C=C\CCC(=O)O` (stereo not drawn) [17R-HDHA, 17-hydroxy-docosa-4Z,7Z,10Z,13Z,15E,19Z-hexaenoic acid] was tested, and the “inhibition of PMN/leukocyte infiltration” value (PMN infiltration) was “potent inhibitor”, the IC50 [1] was about 0.05 nM and the “regulation of PMN/leukocyte recruitment into the air pouch” value (leukocyte infiltration) was “did regulate in vivo PMN exudate cell numbers”. The formation of leukotrienes (leukotrienes [2]) was “prevented formation of leukotrienes”, the formation of leukotrienes (leukotrienes [3]) was “prevented formation of leukotrienes” and the “direct impact on PMN transmigration across endothelial monolayers” value (human PMN) was “did not directly inhibit”.
With `CC/C=C\C[C@H](O)\C=C/C=C/C=C/C(O)C/C=C\C/C=C\CCC(=O)O` (stereo in doubt) [PD1, 10,17S-dihydroxy-4,7,15,19-cis-11,13-trans-docosahexaenoic acid] the “inhibition of PMN/leukocyte infiltration” value (PMN infiltration; listed as 10,17S-docosatrienes) was “potent inhibition”, the “inhibition of PMN/leukocyte infiltration” value (PMN infiltration; listed as 10,17 di-HDHA) was “inhibited” and the “peak and average lung resistance in response to methacholine” value [4] was “decreased both peak and average lung resistance”. The “eosinophil and lymphs (FIG. 25)” value ([5]; 10,17-DT 20 ng and 200 ng, Resolvin E1 200 ng) was “reduced”, the “total leukocytes, EOS and Lymphs in BAL fluid” value ([5]; PD1 2, 20 or 200 ng, Resolvin E1 200 ng i.v.) was “decreased” and the “behavioral or physical signs of toxicity” value ([5]; PD1 treatment, nanogram quantities i.v.) was “No behavioral or physical signs of toxicity”. For the same molecule, the “lowest dose reducing TH2 lymphocyte activation / eosinophil recruitment” value ([5]; i.v.) was 2 ng, the “EOS tissue infiltration around vessels, large and peripheral airways (morphometry)” value [5, 7] was “significant decreases” and the “edema and epithelial hyperplasia” value [5, 7] was “markedly decreased”. The “eosinophils and lymphocytes in peribronchiolar regions and airspaces” value ([5]; i.v. 30 min before aerosol challenge on 4 days, vs vehicle) was “substantially less”, the IL-12 levels ([6]; BAL fluid) was “no significant effect” and the “allergen-induced increase in CysLTs” value ([6]; BAL fluid) was “blocked allergen-induced increases”. The “allergen-induced increase in IL-13” value ([6]; BAL fluid) was “blocked allergen-induced increases”, the “allergen-induced increase in PGD2” value ([6]; BAL fluid) was “blocked allergen-induced increases” and the “potency of inhibitory concentrations relative to the LX analog” value ([6]; IL-13 and CysLT generation) was 1 to 2 log orders. For the same molecule, the “levels of LXA4” value ([6]; data not shown) was “diminished”.
